The target in the test is T1, Human M4 (Homo sapiens, UniProt P08173).
T1 construct: expressed in transfected cells
T1 sequence (P08173 1-479): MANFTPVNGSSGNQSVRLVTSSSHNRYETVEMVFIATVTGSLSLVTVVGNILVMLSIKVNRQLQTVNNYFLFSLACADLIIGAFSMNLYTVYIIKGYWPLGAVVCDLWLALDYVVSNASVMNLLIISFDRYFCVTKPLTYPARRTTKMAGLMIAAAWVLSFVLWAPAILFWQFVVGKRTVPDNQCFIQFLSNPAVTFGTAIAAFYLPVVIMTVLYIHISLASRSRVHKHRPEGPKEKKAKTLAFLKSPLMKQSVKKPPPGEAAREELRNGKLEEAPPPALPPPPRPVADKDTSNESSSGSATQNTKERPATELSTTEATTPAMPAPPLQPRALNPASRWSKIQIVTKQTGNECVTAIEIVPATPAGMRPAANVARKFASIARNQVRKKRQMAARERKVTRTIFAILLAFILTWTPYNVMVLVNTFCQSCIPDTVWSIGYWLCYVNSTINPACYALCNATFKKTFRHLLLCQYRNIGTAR
Nature of the test: mAChR M4 cell-based functional assay (calcium flux, potentiation of EC20 acetylcholine response), hM4-Gqi5 CHO-K1 cells. To be noted: for Emax at 30 µM: CHO-K1, % ACh maximum at 30 μM; for EC50: calcium flux, read-out: Human M4 EC50. Summed up: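 Positive allosteric modulation was scored as a concentration-dependent rise in the response to an EC20 dose of acetylcholine, added 144 s after the compound. Human M4-Gqi5 CHO-K1 cells carried Fluo-4 dye, and compounds ran as 11-point, 3-fold dilution series. EC50 and Emax came from four-parameter logistic fits of the FDSS fluorescence-ratio traces.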

Where [1] appears, read: Table 4, Human M4, read-out: Emax (% ACh maximum at 30 μM).
Setting [2] is: Table 4, potentiation of EC20 acetylcholine response, CHO-K1 cells.
[3] abbreviates: hM4-Gqi5 CHO-K1 cells, PAM of EC20 acetylcholine.
Setting [4] is: Table 3, Human M4, read-out: Emax (% ACh maximum at 30 μM).
Setting [5] is: Table 3, potentiation of EC20 acetylcholine response, CHO-K1 cells.

Structures are written as SMILES. Where two headings read alike, the source gives them in different places.

Take `CCOC(=O)c1c(C)nc2c(C)c(C)c(N3CCc4ncc(C(F)(F)F)cc4C3)nn12` [Compound 339, Ethyl 2,7,8-trimethyl-6-(3-(trifluoromethyl)-7,8-dihydro-1,6-naphthyridin-6(5H)-yl)imidazo[1,2-b]pyridazine-3-carboxylate]: the maximum response (Emax) at 30 µM under setting [1] amounted to 67%. Further, under setting [2], the EC50 worked out at 1900 nM.
The matching figures for `Cc1c(N2CCc3ncc(Oc4cccc(F)c4F)cc3C2)nn2cnnc2c1C` [Compound 304, 3-(2,3-difluorophenoxy)-6-(7,8-dimethyl-[1,2,4]triazolo[4,3-b]pyridazin-6-yl)-5,6,7,8-tetrahydro-1,6-naphthyridine]: 93% and 348 nM.
Regarding `Cc1c(N2CCc3ncc(-c4ccc(C(F)(F)F)nc4)cc3C2)nn2cnnc2c1C` [Compound 36, 6-(7,8-dimethyl-[1,2,4]triazolo[4,3-b]pyridazin-6-yl)-3-[6-(trifluoromethyl)-3-pyridyl]-7,8-dihydro-5H-1,6-naphthyridine], the Emax at 30 µM (human M4, read-out: Emax) came out at 85%. Besides, the half-maximal effective concentration (EC50) under setting [3] was determined as 295 nM.
For the compound `Cc1c(N2CCc3ncc(-c4ccc(N5CCC(F)(F)CC5)nc4)cc3C2)nn2cnnc2c1C` [Compound 215, 3-(6-(4,4-difluoropiperidin-1-yl)pyridin-3-yl)-6-(7,8-dimethyl-[1,2,4]triazolo[4,3-b]pyridazin-6-yl)-5,6,7,8-tetrahydro-1,6-naphthyridine], the maximum response (Emax) at 30 µM under setting [4] was 86%. The EC50 under setting [5] was 351 nM.
As to `Cc1ccncc1-c1cnc2c(c1)CN(c1nn3cnnc3c(C)c1C)CC2` [Compound 102, 6-(7,8-dimethyl-[1,2,4]triazolo[4,3-b]pyridazin-6-yl)-3-(4-methyl-3-pyridyl)-7,8-dihydro-5H-1,6-naphthyridine], the Emax at 30 µM (human M4, read-out: Emax) was 94%. Under setting [3], the 50% effective concentration (EC50) came to 105 nM.
`Cc1cc2nnc(C(F)(F)F)n2nc1N1CCc2ncc(N3CCOC(c4cccnc4)C3)cc2C1` (stereo not drawn) [Compound 329, 4-(6-(7-methyl-3-(trifluoromethyl)-[1,2,4]triazolo[4,3-b]pyridazin-6-yl)-5,6,7,8-tetrahydro-1,6-naphthyridin-3-yl)-2-(pyridin-3-yl)morpholine]: under setting [1], the maximal effect (Emax) at 30 µM worked out at 80%. In addition, the concentration giving a half-maximal response (EC50) under setting [2] was 1490 nM.
For `Cc1ccc(F)c(Nc2cnc3c(c2)CN(c2nn4cnnc4c(C)c2C)CC3)c1` [Compound 69, 6-(7,8-dimethyl-[1,2,4]triazolo[4,3-b]pyridazin-6-yl)-N-(2-fluoro-5-methyl-phenyl)-7,8-dihydro-5H-1,6-naphthyridin-3-amine], the maximal response (Emax) at 30 µM (human M4, read-out: Emax) worked out at 90%. The EC50 under setting [3] came out at 296 nM.
As to `Cc1cc(Nc2cnc3c(c2)CN(c2nn4cnnc4c(C)c2C)CC3)n(CC(C)C)n1` [Compound 212, 6-(7,8-dimethyl-[1,2,4]triazolo[4,3-b]pyridazin-6-yl)-N-(1-isobutyl-3-methyl-1H-pyrazol-5-yl)-5,6,7,8-tetrahydro-1,6-naphthyridin-3-amine], the maximum response (Emax) at 30 µM under setting [4] came out at 41%. The half-maximal effective concentration (EC50) under setting [5] is 5410 nM.
In the case of `Cc1ncc(-c2cnc3c(c2)CN(c2nn4cnnc4c(C)c2C)CC3)s1` [Compound 60, 5-[6-(7,8-dimethyl-[1,2,4]triazolo[4,3-b]pyridazin-6-yl)-7,8-dihydro-5H-1,6-naphthyridin-3-yl]-2-methyl-thiazole], the maximum response (Emax) at 30 µM (human M4, read-out: Emax) amounted to 82%. Under setting [3], the EC50 is 180 nM.
With `Cc1cccc(C(=O)Nc2cnc3c(c2)CN(c2nn4cnnc4c(C)c2C)CC3)c1` [Compound 157, N-(6-(7,8-dimethyl-[1,2,4]triazolo[4,3-b]pyridazin-6-yl)-5,6,7,8-tetrahydro-1,6-naphthyridin-3-yl)-3-methylbenzamide], the Emax at 30 µM under setting [4] turned out to be 96%. Under setting [5], the 50% effective concentration (EC50) was found to be 785 nM.
Consider `Cc1c(N2CCc3ncc(-c4cnc(Cl)c(F)c4)cc3C2)nn2cnnc2c1C` [Compound 177, 3-(6-chloro-5-fluoropyridin-3-yl)-6-(7,8-dimethyl-[1,2,4]triazolo[4,3-b]pyridazin-6-yl)-5,6,7,8-tetrahydro-1,6-naphthyridine], for which the Emax at 30 µM under setting [4] was 85%. Under setting [5], the half-maximal effective concentration (EC50) was determined as 747 nM.
With `CCn1ccc(-c2cnc3c(c2)CN(c2nn4ccnc4cc2C)CC3)n1` [Compound 131, 3-(1-ethylpyrazol-3-yl)-6-(7-methylimidazo[1,2-b]pyridazin-6-yl)-7,8-dihydro-5H-1,6-naphthyridine], for the setting “human M4, read-out: Emax”, the Emax at 30 µM was found to be 81%. Moreover, the EC50 under setting [3] came out at 921 nM.
The matching figures for `Cc1c(N2CCc3ncc(Nc4c(F)cccc4C#N)cc3C2)nn2cnnc2c1C` [Compound 46, 2-[[6-(7,8-dimethyl-[1,2,4]triazolo[4,3-b]pyridazin-6-yl)-7,8-dihydro-5H-1,6-naphthyridin-3-yl]amino]-3-fluoro-benzonitrile]: 64% and 611 nM.
For `Cc1c(N2CCc3ncc(-n4ccc5ccccc54)cc3C2)nn2c(C(F)(F)F)nnc2c1C` [Compound 248, 6-(7,8-dimethyl-3-(trifluoromethyl)-[1,2,4]triazolo[4,3-b]pyridazin-6-yl)-3-(1H-indol-1-yl)-5,6,7,8-tetrahydro-1,6-naphthyridine], the maximal effect (Emax) at 30 µM under setting [4] worked out at 58%. Also, the EC50 under setting [5] was 2310 nM.
Turning to `Cc1ccc(Oc2cnc3c(c2)CN(c2nn4cnnc4cc2C)CC3)c(F)c1` [Compound 310, 3-(2-fluoro-4-methylphenoxy)-6-(7-methyl-[1,2,4]triazolo[4,3-b]pyridazin-6-yl)-5,6,7,8-tetrahydro-1,6-naphthyridine], the maximal effect (Emax) at 30 µM under setting [1] is 81%. Besides, the half-maximal effective concentration (EC50) under setting [2] is 182 nM.
As to `Cc1c(N2CCc3ncc(N4CCCn5nccc54)cc3C2)nn2cnnc2c1C` [Compound 209, 3-(6,7-dihydropyrazolo[1,5-a]pyrimidin-4(5H)-yl)-6-(7,8-dimethyl-[1,2,4]triazolo[4,3-b]pyridazin-6-yl)-5,6,7,8-tetrahydro-1,6-naphthyridine], under setting [4], the Emax at 30 µM was 99%. The EC50 under setting [5] was 71 nM.
Turning to `Cc1c(N2CCc3ncc(-c4cnn(C5CC5)c4)cc3C2)nn2c(C(F)(F)F)nnc2c1C` [Compound 234, 3-(1-cyclopropyl-1H-pyrazol-4-yl)-6-(7,8-dimethyl-3-(trifluoromethyl)-[1,2,4]triazolo[4,3-b]pyridazin-6-yl)-5,6,7,8-tetrahydro-1,6-naphthyridine], under setting [4], the Emax at 30 µM is 78%. The EC50 under setting [5] came out at 330 nM.
For the compound `Cc1ccc(-c2cnc3c(c2)CN(c2nn4cnnc4cc2C)CC3)cn1` [Compound 198, 6-(7-methyl-[1,2,4]triazolo[4,3-b]pyridazin-6-yl)-3-(6-methylpyridin-3-yl)-5,6,7,8-tetrahydro-1,6-naphthyridine], the Emax at 30 µM under setting [4] stood at 93%. In addition, under setting [5], the concentration giving a half-maximal response (EC50) was determined as 206 nM.
As to `COC1CCCN(c2cnc3c(c2)CN(c2nn4c(C(F)(F)F)nnc4c(C)c2C)CC3)C1` (stereo not drawn) [Compound 292, 6-(7,8-dimethyl-3-(trifluoromethyl)-[1,2,4]triazolo[4,3-b]pyridazin-6-yl)-3-(3-methoxypiperidin-1-yl)-5,6,7,8-tetrahydro-1,6-naphthyridine], the maximal effect (Emax) at 30 µM under setting [4] amounted to 106%. Further, the EC50 under setting [5] stood at 556 nM.
In the case of `Cc1noc(C)c1-c1cnc2c(c1)CN(c1nn3c(C)nnc3c(C)c1C)CC2` [Compound 86, 3,5-dimethyl-4-[6-(3,7,8-trimethyl-[1,2,4]triazolo[4,3-b]pyridazin-6-yl)-7,8-dihydro-5H-1,6-naphthyridin-3-yl]isoxazole], where the note is “human M4, read-out: Emax”, the maximal effect (Emax) at 30 µM is 84%. Besides, the EC50 under setting [3] was determined as 227 nM.
For `Cc1c(N2CCc3ncc(-c4cnn(C5CC5)c4)cc3C2)nn2cnnc2c1C` [Compound 142, 3-(1-cyclopropylpyrazol-4-yl)-6-(7,8-dimethyl-[1,2,4]triazolo[4,3-b]pyridazin-6-yl)-7,8-dihydro-5H-1,6-naphthyridine], the maximal effect (Emax) at 30 µM (human M4, read-out: Emax) is 93%. Also, the concentration giving a half-maximal response (EC50) under setting [3] was 169 nM.
In the case of `Cc1ncc(-c2cnc3c(c2)CN(c2nn4cnnc4cc2C)CC3)s1` [Compound 194, 2-methyl-5-(6-(7-methyl-[1,2,4]triazolo[4,3-b]pyridazin-6-yl)-5,6,7,8-tetrahydro-1,6-naphthyridin-3-yl)thiazole], the Emax at 30 µM under setting [4] came to 88%. Under setting [5], the EC50 was 292 nM.
In the case of `Cc1c(N2CCc3ncc(-n4nccc4C)cc3C2)nn2c(C(F)(F)F)nnc2c1C` [Compound 242, 6-(7,8-dimethyl-3-(trifluoromethyl)-[1,2,4]triazolo[4,3-b]pyridazin-6-yl)-3-(5-methyl-1H-pyrazol-1-yl)-5,6,7,8-tetrahydro-1,6-naphthyridine], the Emax at 30 µM under setting [4] was 80%. The concentration giving a half-maximal response (EC50) under setting [5] is 696 nM.
For the compound `COc1cc(F)c(Nc2cnc3c(c2)CN(c2nn4cnnc4c(C)c2C)CC3)c(F)c1` [Compound 31, N-(2,6-difluoro-4-methoxy-phenyl)-6-(7,8-dimethyl-[1,2,4]triazolo[4,3-b]pyridazin-6-yl)-7,8-dihydro-5H-1,6-naphthyridin-3-amine], the Emax at 30 µM (human M4, read-out: Emax) came to 88%. Further, under setting [3], the EC50 came out at 455 nM.

(Values after patent US20250002507A1, “7,8-DIHYDRO-5H-1,6-NAPHTHYRIDINE DERIVATIVES AS POSITIVE ALLOSTERIC MODULATORS OF THE MUSCARINIC ACETYLCHOLINE RECEPTOR M4 FOR TREATING NEUROLOGICAL AND PSYCHIATRIC DISORDERS” (Vanderbilt University, priority 2021, published 2025).)
